In patent US6570068B1, “Methods for maize transformation coupled with adventitious regeneration utilizing nodal section explants and mature zygotic embryos” (Mississippi State University, priority 1997, dated 2003):

Experiments:
[1] = system: nodal ridge explants; experiment: Multiple shoot clump formation from nodal ridge explants of seedlings germinated with BA; format: cell-based, corn; conditions: 2.0 mg/l BA in germination medium, 4 weeks on shoot initiation medium
Procedure: (§1) In this experiment, the standard germination medium contained 4.3 g/l MS basal salts, DM-Vitamins (1.0 mg/l thiamine-HCl, 0.5 mg/l pyridoxine-HCl, 0.5 mg/l nicotinic acid, 100 mg/l myo-inositol), 30 g/l sucrose, (pH 5.8), and 2.0 mg/l benzyladenine (BA). The standard shoot initiation medium contained 4.3 g/l MS basal salts, DM-vitamins (1.0 mg/l thiamine-HCl, 0.5 mg/l pyridoxine-HCl, 0.5 mg/l nicotinic acid, 100 mg/l myo-inositol), 30 g/l sucrose, 8.0 g/l Phytagar, 0.25 mg/l 4-CPA (para-chlorophenoxyacetic acid), 10 mg/l glycine, 150 mg/l asparagine, and 2.0 mg/l BA. The standard root initiation medium contained 4.3 g/l MS basal salts, DM-vitamins (1.0 mg/l thiamine-HCl, 0.5 mg/l pyridoxine-HCl, 0.5 mg/l nicotinic acid, 100 mg/l myo-inositol), 30 g/l sucrose, 8.0 g/l Phytagar, and ±0.5 mg/l IBA.
As a result, those explants were easier to excise. Explants spanning the seventh node (nodal ridge),with a top excision of 0.5-1.0 mm above the ridge were excised from 4, 7, 14 or 21 day-old seedlings and placed on the shoot initiation medium for 4 weeks. After 4 weeks, 45% of the explants from 7 day-old seedlings (+BA) produced multiple shoot clumps, whereas only 24% of 7 day-old seedlings (−BA) produced multiple shoot clumps. Approximately 3% of the 4 day-old seedlings (+BA) produced multiple shoots. […]

[2] = system: corn seedlings; experiment: Seedling growth in germination medium with BA; format: in vivo; conditions: for seedling height versus seedlings without BA: 2.0 mg/l BA in germination medium
Procedure: as §1
As a result, those explants were easier to excise. Explants spanning the seventh node (nodal ridge),with a top excision of 0.5-1.0 mm above the ridge were excised from 4, 7, 14 or 21 day-old seedlings and placed on the shoot initiation medium for 4 weeks. After 4 weeks, 45% of the explants from 7 day-old seedlings (+BA) produced multiple shoot clumps, whereas only 24% of 7 day-old seedlings (−BA) produced multiple shoot clumps. Approximately 3% of the 4 day-old seedlings (+BA) produced multiple shoots. Most explants from older seedlings (14 or 21 days) produced only one elongated shoot or 1 shoot with multiple branches. Once placed on the standard root initiation medium, most shoots (85%) rooted and the plants produced were acclimatized and placed under greenhouse conditions where normal flowering and fruiting were observed. Only one out of 29 plants produced was abnormal (i.e., a dwarf with twisted leaves). The explants should remain on the shoot initiation medium for 4 weeks. It was discovered that if the explants are left on the shoot initiation medium for 8 weeks, floral structures appeared.

`c1ccc(CNc2ncnc3nc[nH]c23)cc1` [BA, benzyladenine] was tested, and the “seedlings (explants) that produced multiple shoots” value ([1]; 4 day-old seedlings) was “Approximately 3%”, the “explants that produced multiple shoot clumps” value ([1]; explants from 7 day-old seedlings) was 45% and the “seedling height versus seedlings without BA” value ([2]; 4 day-old seedlings) was “taller than those without BA”. For the same compound, the “seedling height versus seedlings without BA” value ([2]; by 7 days) was “no appreciable differences in height” and the “roots at the nodal ridge” value ([2]; seedlings grown with BA) was “less roots at the nodal ridge”.
